Data published in article PMC6858350, “A common mechanism allows selective targeting of GluN2B subunit-containing N-methyl-D-aspartate receptors” (Communications Biology, 2019).
Like-named read-outs stand apart in the source and are kept apart here.

What was measured:
GluN1-1a/GluN2C NMDAR [1] = biological target: T1, GluN1-1a/GluN2C NMDAR (Rattus norvegicus, UniProt P35439+Q00961); conditions: from inhibition at 10 µM (GluN2C, GluN2D) versus IC50 at GluN2B
GluN1-1a WT/GluN2B F176Y [2] = biological target: T2, GluN1-1a WT/GluN2B F176Y (Rattus norvegicus, UniProt P35439+Q00960, F176Y); test: cell-based
GluN1-1a/GluN2A NMDAR = GluN1-1a/GluN2A NMDAR (Rattus norvegicus, UniProt P35439+Q00959); test: cell-based; conditions: read-out: ion current inhibition % ± SEM, GluN2A
GluN1-1a Y109S/GluN2B WT [3] = biological target: T3, GluN1-1a Y109S/GluN2B WT (Rattus norvegicus, UniProt P35439+Q00960, Y109S); test: cell-based
T3 sequence (Q00960 27-1482, other chains not shown): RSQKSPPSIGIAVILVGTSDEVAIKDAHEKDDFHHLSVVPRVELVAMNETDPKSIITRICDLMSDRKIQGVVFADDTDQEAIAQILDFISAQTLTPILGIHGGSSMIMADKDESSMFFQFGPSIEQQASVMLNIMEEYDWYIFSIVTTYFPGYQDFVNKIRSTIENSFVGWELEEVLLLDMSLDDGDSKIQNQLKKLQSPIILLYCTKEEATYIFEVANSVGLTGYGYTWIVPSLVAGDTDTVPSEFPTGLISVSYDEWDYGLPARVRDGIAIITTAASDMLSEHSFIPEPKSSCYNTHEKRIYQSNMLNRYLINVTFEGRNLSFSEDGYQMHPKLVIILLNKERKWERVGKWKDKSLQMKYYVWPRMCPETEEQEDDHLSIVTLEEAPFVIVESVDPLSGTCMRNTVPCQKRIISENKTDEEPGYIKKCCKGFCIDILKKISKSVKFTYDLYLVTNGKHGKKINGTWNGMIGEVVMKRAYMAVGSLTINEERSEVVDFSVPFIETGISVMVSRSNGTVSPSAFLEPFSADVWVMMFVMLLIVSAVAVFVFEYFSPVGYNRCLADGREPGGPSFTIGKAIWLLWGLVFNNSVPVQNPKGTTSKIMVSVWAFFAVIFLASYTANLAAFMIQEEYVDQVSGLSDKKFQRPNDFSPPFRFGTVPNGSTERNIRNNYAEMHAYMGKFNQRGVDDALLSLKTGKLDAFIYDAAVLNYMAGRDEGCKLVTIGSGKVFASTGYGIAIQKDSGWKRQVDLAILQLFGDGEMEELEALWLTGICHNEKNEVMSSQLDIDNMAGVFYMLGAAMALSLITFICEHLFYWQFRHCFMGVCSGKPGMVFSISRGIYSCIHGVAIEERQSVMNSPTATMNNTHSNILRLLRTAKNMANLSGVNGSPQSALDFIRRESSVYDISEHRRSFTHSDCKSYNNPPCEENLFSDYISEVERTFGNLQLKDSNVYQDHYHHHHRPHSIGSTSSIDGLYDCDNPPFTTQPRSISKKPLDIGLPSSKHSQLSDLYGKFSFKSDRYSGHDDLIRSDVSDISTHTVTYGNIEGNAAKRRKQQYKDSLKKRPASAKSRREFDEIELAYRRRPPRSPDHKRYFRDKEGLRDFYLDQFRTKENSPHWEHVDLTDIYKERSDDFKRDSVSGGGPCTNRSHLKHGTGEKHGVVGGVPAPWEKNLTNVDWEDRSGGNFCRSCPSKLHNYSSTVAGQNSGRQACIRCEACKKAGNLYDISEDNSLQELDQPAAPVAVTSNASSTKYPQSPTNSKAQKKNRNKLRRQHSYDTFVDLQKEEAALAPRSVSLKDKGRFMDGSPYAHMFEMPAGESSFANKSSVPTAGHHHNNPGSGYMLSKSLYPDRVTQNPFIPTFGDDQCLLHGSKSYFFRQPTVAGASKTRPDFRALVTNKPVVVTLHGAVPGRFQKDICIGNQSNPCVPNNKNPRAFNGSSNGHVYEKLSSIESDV

GluN1-1a Y109S/GluN2B WT [4] = biological target: T3, GluN1-1a Y109S/GluN2B WT; conditions: for p (slope) / A2 ± SE: GluN1-1a Y109S; for A2 ± SE: flexible A2
GluN1-1a L135N/GluN2B WT [5] = biological target: T4, GluN1-1a L135N/GluN2B WT (Rattus norvegicus, UniProt P35439+Q00960, L135N); test: cell-based
GluN1-1a WT/GluN2B F114A [6] = biological target: T5, GluN1-1a WT/GluN2B F114A (Rattus norvegicus, UniProt P35439+Q00960, F114A); conditions: for p (slope) / A2, fixed-to-wildtype (*): GluN2B F114A; for A2, fixed-to-wildtype (*): maximum inhibition fixed to wildtype value
GluN1-1a WT/GluN2B F176A [7] = biological target: T6, GluN1-1a WT/GluN2B F176A (Rattus norvegicus, UniProt P35439+Q00960, F176A); conditions: for p (slope) / A2, fixed-to-wildtype (*): GluN2B F176A; for A2, fixed-to-wildtype (*): maximum inhibition fixed to wildtype value
GluN1-1a WT/GluN2B I111A [8] = biological target: T7, GluN1-1a WT/GluN2B I111A (Rattus norvegicus, UniProt P35439+Q00960, I111A); conditions: for p (slope) / A2 ± SE: GluN2B I111A; for A2 ± SE: flexible A2
GluN1-1a S132A/GluN2B WT [9] = biological target: T8, GluN1-1a S132A/GluN2B WT (Rattus norvegicus, UniProt P35439+Q00960, S132A); test: cell-based
[10] = biological target: GluN1-1a/GluN2B NMDAR (wildtype) (Rattus norvegicus, UniProt P35439+Q00960); assay type: cell-based; conditions: for p (slope of the dose-response curve) / A2 ± SE (maximum inhibition from dose-response curve): −70 mV; for A2 ± SE (maximum inhibition from dose-response curve): flexible A2; for inhibition at 10 µM: read-out: ion current inhibition % ± SEM, GluN2B
GluN1-1a WT/GluN2B I111A [11] = biological target: T7, GluN1-1a WT/GluN2B I111A; test: cell-based
GluN1-1a WT/GluN2B F114A [12] = biological target: T5, GluN1-1a WT/GluN2B F114A; test: cell-based
GluN1-1a L135N/GluN2B WT [13] = biological target: T4, GluN1-1a L135N/GluN2B WT; conditions: for p (slope) / A2 ± SE: GluN1-1a L135N; for A2 ± SE: flexible A2
GluN1-1a F113S/GluN2B WT [14] = biological target: T9, GluN1-1a F113S/GluN2B WT (Rattus norvegicus, UniProt P35439+Q00960, F113S); test: cell-based
GluN1-1a WT/GluN2B Q110A [15] = biological target: T10, GluN1-1a WT/GluN2B Q110A (Rattus norvegicus, UniProt P35439+Q00960, Q110A); conditions: for p (slope) / A2 ± SE: GluN2B Q110A; for A2 ± SE: flexible A2
T10 sequence (Q00960 27-1482 Q110A, other chains not shown): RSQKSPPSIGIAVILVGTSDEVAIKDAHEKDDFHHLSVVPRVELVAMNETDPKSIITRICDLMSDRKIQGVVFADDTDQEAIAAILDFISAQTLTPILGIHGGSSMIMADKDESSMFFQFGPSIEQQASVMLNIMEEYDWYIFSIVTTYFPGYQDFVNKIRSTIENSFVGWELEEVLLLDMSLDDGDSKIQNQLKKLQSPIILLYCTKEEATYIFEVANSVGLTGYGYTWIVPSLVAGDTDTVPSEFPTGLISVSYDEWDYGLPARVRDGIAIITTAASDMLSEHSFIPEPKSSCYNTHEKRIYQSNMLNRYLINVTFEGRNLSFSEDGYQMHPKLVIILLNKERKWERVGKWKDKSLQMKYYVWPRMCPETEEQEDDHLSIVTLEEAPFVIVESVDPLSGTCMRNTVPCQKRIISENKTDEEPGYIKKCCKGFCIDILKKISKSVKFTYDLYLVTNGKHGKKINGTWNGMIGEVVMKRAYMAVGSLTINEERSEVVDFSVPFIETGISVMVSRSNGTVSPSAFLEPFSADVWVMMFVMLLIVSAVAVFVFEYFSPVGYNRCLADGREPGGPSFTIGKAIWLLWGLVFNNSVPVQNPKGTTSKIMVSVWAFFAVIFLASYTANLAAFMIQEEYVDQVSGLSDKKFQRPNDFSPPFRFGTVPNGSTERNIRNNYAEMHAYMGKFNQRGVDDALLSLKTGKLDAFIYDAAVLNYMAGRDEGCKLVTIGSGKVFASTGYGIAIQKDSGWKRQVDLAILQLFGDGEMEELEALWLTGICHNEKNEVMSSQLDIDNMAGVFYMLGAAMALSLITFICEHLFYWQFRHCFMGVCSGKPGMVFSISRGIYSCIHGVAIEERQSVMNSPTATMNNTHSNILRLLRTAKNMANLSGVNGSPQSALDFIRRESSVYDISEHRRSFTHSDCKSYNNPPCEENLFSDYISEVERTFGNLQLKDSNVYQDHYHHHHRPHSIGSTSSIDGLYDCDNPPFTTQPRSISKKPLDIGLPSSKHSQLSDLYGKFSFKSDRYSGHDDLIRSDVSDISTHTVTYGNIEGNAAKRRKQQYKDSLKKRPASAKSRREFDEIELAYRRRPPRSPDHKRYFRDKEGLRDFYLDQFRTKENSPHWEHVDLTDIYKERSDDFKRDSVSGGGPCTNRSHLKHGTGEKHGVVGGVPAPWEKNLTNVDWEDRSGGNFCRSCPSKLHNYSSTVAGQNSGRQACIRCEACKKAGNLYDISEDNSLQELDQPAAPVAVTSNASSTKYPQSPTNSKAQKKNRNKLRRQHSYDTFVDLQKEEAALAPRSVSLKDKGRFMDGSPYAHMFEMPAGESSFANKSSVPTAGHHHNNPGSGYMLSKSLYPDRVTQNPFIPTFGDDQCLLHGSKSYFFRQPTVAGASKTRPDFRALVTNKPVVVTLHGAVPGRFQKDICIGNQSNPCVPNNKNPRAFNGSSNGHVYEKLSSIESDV

GluN1-1a WT/GluN2B E236A [16] = biological target: T11, GluN1-1a WT/GluN2B E236A (Rattus norvegicus, UniProt P35439+Q00960, E236A); test: cell-based
T11 sequence (Q00960 27-1482 E236A, other chains not shown): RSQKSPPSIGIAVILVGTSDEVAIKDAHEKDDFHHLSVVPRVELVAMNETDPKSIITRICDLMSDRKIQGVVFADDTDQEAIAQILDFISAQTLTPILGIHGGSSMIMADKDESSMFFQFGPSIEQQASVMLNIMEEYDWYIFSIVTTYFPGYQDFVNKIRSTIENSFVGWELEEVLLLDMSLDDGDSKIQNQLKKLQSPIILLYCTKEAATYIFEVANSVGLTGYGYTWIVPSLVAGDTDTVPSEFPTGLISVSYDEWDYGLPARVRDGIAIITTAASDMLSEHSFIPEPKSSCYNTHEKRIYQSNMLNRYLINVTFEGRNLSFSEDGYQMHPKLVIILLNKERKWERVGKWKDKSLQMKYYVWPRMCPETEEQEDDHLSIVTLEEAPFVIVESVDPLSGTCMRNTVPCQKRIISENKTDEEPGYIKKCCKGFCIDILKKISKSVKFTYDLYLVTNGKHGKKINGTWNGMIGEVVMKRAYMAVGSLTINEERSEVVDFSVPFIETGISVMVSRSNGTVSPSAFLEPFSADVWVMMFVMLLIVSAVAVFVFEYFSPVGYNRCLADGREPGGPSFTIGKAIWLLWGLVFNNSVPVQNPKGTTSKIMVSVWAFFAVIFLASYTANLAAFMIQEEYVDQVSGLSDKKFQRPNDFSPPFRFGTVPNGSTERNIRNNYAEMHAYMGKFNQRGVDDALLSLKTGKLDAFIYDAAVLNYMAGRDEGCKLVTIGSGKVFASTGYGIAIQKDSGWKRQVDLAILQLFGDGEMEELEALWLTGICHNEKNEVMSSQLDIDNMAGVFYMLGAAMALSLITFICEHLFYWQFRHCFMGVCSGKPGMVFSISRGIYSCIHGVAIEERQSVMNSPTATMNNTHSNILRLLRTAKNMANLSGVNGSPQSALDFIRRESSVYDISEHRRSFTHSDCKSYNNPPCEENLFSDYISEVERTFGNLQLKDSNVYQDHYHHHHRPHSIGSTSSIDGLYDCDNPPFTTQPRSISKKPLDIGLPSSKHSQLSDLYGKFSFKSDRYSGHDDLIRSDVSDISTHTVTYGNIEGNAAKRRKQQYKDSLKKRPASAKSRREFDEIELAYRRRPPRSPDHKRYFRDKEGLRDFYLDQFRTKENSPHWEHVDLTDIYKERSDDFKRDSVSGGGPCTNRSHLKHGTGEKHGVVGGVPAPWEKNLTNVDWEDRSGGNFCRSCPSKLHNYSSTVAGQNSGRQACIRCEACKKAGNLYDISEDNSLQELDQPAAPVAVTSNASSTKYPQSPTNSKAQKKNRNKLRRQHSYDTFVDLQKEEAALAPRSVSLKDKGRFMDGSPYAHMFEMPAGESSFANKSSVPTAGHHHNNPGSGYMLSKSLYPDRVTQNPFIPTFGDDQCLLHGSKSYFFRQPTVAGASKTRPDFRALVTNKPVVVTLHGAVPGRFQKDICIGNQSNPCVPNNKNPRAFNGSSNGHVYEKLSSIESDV

GluN1-1a WT/GluN2B E236A [17] = biological target: T11, GluN1-1a WT/GluN2B E236A; conditions: for p (slope) / A2 ± SE: GluN2B E236A; for A2 ± SE: flexible A2
GluN1-1a WT/GluN2B F176A [18] = biological target: T6, GluN1-1a WT/GluN2B F176A; test: cell-based
GluN1-1a F113S/GluN2B WT [19] = biological target: T9, GluN1-1a F113S/GluN2B WT; conditions: for p (slope) / A2 ± SE: GluN1-1a F113S; for A2 ± SE: flexible A2
GluN1-1a S132A/GluN2B WT [20] = biological target: T8, GluN1-1a S132A/GluN2B WT; conditions: for A2 ± SE: flexible A2
GluN1-1a WT/GluN2B F176Y [21] = biological target: T2, GluN1-1a WT/GluN2B F176Y; conditions: for p (slope) / A2, fixed-to-wildtype (*): GluN2B F176Y; for A2, fixed-to-wildtype (*): maximum inhibition fixed to wildtype value
GluN1-1a/GluN2C NMDAR [22] = biological target: T1, GluN1-1a/GluN2C NMDAR; test: cell-based; conditions: read-out: ion current inhibition % ± SEM, GluN2C
GluN1-1a WT/GluN2B Q110A [23] = biological target: T10, GluN1-1a WT/GluN2B Q110A; test: cell-based
GluN1-1a/GluN2D NMDAR = GluN1-1a/GluN2D NMDAR (Rattus norvegicus, UniProt P35439+Q62645); test: cell-based; conditions: read-out: ion current inhibition % ± SEM, GluN2D
[24] = system: NMDA receptor-dependent EPSCs in CA1 pyramidal neurons; test: whole cell patch-clamp of evoked NMDAR-dependent EPSCs in hippocampal slices; assay type: cell-based, C57BL/6J mice; conditions: n = 5

## C[C@@H]1[C@H](O)c2ccc(O)cc2CCN1CCCCc1ccccc1 [compound 2]
GluN1-1a/GluN2C NMDAR [1]
  lower activity at GluN2C and GluN2D than at GluN2B subunit-containing NMDARs: at least 100 fold
GluN1-1a WT/GluN2B F176Y [2]
  IC50: 84 ± 9 nM
GluN1-1a/GluN2A NMDAR
  inhibition at 10 µM: 15 ± 5%
GluN1-1a Y109S/GluN2B WT [3]
  IC50: 140 ± 19 nM
GluN1-1a Y109S/GluN2B WT [4]
  p (slope): 0.86
  A2 ± SE: 96 ± 2%
GluN1-1a Y109S/GluN2B WT [4]; mutant IC50 / wildtype IC50, GluN1-1a Y109S
  IC50 shift factor: 1.5
GluN1-1a L135N/GluN2B WT [5]
  IC50: 835 ± 184 nM
GluN1-1a WT/GluN2B F114A [6]
  p (slope): 1.03
  A2, fixed-to-wildtype (*): 97%
GluN1-1a WT/GluN2B F114A [6]; mutant IC50 / wildtype IC50, GluN2B F114A
  IC50 shift factor: 7.3
GluN1-1a WT/GluN2B F176A [7]
  p (slope): 0.94
  A2, fixed-to-wildtype (*): 97%
GluN1-1a WT/GluN2B F176A [7]; mutant IC50 / wildtype IC50, GluN2B F176A
  IC50 shift factor: 19.9
GluN1-1a WT/GluN2B I111A [8]
  p (slope): 0.86
  A2 ± SE: 96 ± 4%
GluN1-1a WT/GluN2B I111A [8]; mutant IC50 / wildtype IC50, GluN2B I111A
  IC50 shift factor: 4.2
GluN1-1a S132A/GluN2B WT [9]
  IC50: 387 ± 57 nM
[10]
  IC50: 91 ± 7 nM
  inhibition at 10 µM: 95 ± 1%
[10]; TEVC, wildtype
  p (slope of the dose-response curve): 1.08
  A2 ± SE (maximum inhibition from dose-response curve): 97 ± 2%
GluN1-1a WT/GluN2B I111A [11]
  IC50: 380 ± 82 nM
GluN1-1a WT/GluN2B F114A [12]
  IC50: 667 ± 90 nM
GluN1-1a L135N/GluN2B WT [13]
  p (slope): 0.72
  A2 ± SE: 100 ± 5%
GluN1-1a L135N/GluN2B WT [13]; mutant IC50 / wildtype IC50, GluN1-1a L135N
  IC50 shift factor: 9.2
GluN1-1a F113S/GluN2B WT [14]
  IC50: 76 ± 17 nM
GluN1-1a WT/GluN2B Q110A [15]
  p (slope): 1.79
  A2 ± SE: 95 ± 1%
GluN1-1a WT/GluN2B Q110A [15]; mutant IC50 / wildtype IC50, GluN2B Q110A
  IC50 shift factor: 1.4
GluN1-1a WT/GluN2B E236A [16]
  IC50: 108 ± 16 nM
GluN1-1a WT/GluN2B E236A [17]
  p (slope): 1.09
  A2 ± SE: 95 ± 3%
GluN1-1a WT/GluN2B E236A [17]; mutant IC50 / wildtype IC50, GluN2B E236A
  IC50 shift factor: 1.2
GluN1-1a WT/GluN2B F176A [18]
  IC50: 1810 ± 127 nM
GluN1-1a F113S/GluN2B WT [19]
  p (slope): 0.57
  A2 ± SE: 100 ± 3%
GluN1-1a F113S/GluN2B WT [19]; mutant IC50 / wildtype IC50, GluN1-1a F113S
  IC50 shift factor: 0.8
GluN1-1a S132A/GluN2B WT [20]; GluN1-1a S132A
  p (slope): 0.78
  A2 ± SE: 100 ± 3%
GluN1-1a S132A/GluN2B WT [20]; mutant IC50 / wildtype IC50, GluN1-1a S132A
  IC50 shift factor: 4.3
GluN1-1a WT/GluN2B F176Y [21]
  p (slope): 1.00
  A2, fixed-to-wildtype (*): 97%
GluN1-1a WT/GluN2B F176Y [21]; mutant IC50 / wildtype IC50, GluN2B F176Y
  IC50 shift factor: 0.9
GluN1-1a/GluN2C NMDAR [22]
  inhibition at 10 µM: 56 ± 2%
GluN1-1a WT/GluN2B Q110A [23]
  IC50: 130 ± 6 nM
GluN1-1a/GluN2D NMDAR
  inhibition at 10 µM: 55 ± 2%

## Oc1ccc2c(c1)CCN(CCCCc1ccccc1)C[C@@H]2O [compound (R)-1]
GluN1-1a WT/GluN2B F176Y [2]
  IC50: 107 ± 20 nM
GluN1-1a/GluN2A NMDAR
  inhibition at 10 µM: 4 ± 1%
GluN1-1a Y109S/GluN2B WT [3]
  IC50: 20 ± 2 nM
GluN1-1a Y109S/GluN2B WT [4]
  p (slope): 1.42
  A2 ± SE: 92 ± 2%
GluN1-1a L135N/GluN2B WT [5]
  IC50: 293 ± 74 nM
GluN1-1a WT/GluN2B F114A [6]
  p (slope): 1.35
  A2, fixed-to-wildtype (*): 93%
GluN1-1a WT/GluN2B F176A [7]
  p (slope): 0.40
  A2, fixed-to-wildtype (*): 93%
GluN1-1a WT/GluN2B I111A [8]
  p (slope): 0.92
  A2 ± SE: 66 ± 3%
[24]; 2 µM compound
  EPSC amplitude, % of the initial baseline (SEM): 60.2 ± 2.8%
[24]; 7 µM compound
  EPSC amplitude, % of the initial baseline (SEM): 13.8 ± 1.4%
[24]; washout of compound
  EPSC amplitude after washout, % of the initial baseline (SEM): 30.9 ± 3.6%
GluN1-1a S132A/GluN2B WT [9]
  IC50: 106 ± 14 nM
[10]; TEVC, holding potential −70 mV, 10 µM glycine and 10 µM (S)-glutamate, wildtype, read-out: IC50 ± SE
  IC50: 53 ± 3 nM
[10]; TEVC, wildtype
  p (slope of the dose-response curve): 1.11
  A2 ± SE (maximum inhibition from dose-response curve): 93 ± 1%
[10]
  inhibition at 10 µM: 95 ± 1%
GluN1-1a WT/GluN2B I111A [11]
  IC50: 137 ± 31 nM
GluN1-1a WT/GluN2B F114A [12]
  IC50: 4080 ± 423 nM
GluN1-1a L135N/GluN2B WT [13]
  p (slope): 0.66
  A2 ± SE: 72 ± 3%
GluN1-1a F113S/GluN2B WT [14]
  IC50: 117 ± 48 nM
GluN1-1a WT/GluN2B Q110A [15]
  p (slope): 2.18
  A2 ± SE: 91 ± 1%
GluN1-1a WT/GluN2B E236A [16]
  IC50: 194 ± 30 nM
GluN1-1a WT/GluN2B E236A [17]
  p (slope): 1.32
  A2 ± SE: 85 ± 1%
GluN1-1a WT/GluN2B F176A [18]
  IC50: 105000 ± 41000 nM
GluN1-1a F113S/GluN2B WT [19]
  p (slope): 0.50
  A2 ± SE: 77 ± 5%
GluN1-1a S132A/GluN2B WT [20]; GluN1-1a S132A
  A2 ± SE: 92 ± 2%
GluN1-1a WT/GluN2B F176Y [21]
  p (slope): 0.82
  A2, fixed-to-wildtype (*): 93%
GluN1-1a/GluN2C NMDAR [22]
  inhibition at 10 µM: 8 ± 1%
GluN1-1a WT/GluN2B Q110A [23]
  IC50: 393 ± 24 nM
GluN1-1a/GluN2D NMDAR
  inhibition at 10 µM: 18 ± 3%
